Consider 1 compound from patent US11058756B2, “Compositions and methods of treating autoimmune disease by reducing enterococcus” (YALE UNIVERSITY, priority 2017, dated 2021).

Experiment [1] deals with Th17 and Tfh cells. The experiment in a line: Th17/Tfh cell frequencies (FACS) and splenocyte cytokines (LEGENDplex) after antibiotic treatment in vivo. Details: species or system mouse. From the text:
(§1) Mice were cohoused for 3 to 4 weeks before antibiotic treatment to allow for equilibration of the microbiota. Single antibiotic or broad-spectrum antibiotic administration consisted of metronidazole (1 g/liter; Fisher Scientific), neomycin (1 g/liter; Fisher Scientific), ampicillin (1 g/liter; Sigma) and vancomycin (0.5 g/liter; Acros Organics) in the drinking water for up to 22 weeks or a targeted regiment for 2 weeks and then replaced with regular water for the duration of the experiment. For broad-spectrum antibiotic experiments (vancomycin, ampicillin, metronidazole, and neomycin combined), sweetener (Equal, 4 g/L) was added to both the antibiotics and control water due to the metallic taste of metronidazole. Twenty-four hours after cessation of antibiotic water, mice were administered 1×10^6 CFUs of vancomycin-resistant E. gallinarum via oral gavage, isolated from liver tissue of a vancomycin-treated mouse that continued to show signs of autoimmune disease (high-level resistance was confirmed by vanC gene PCR). E. gallinarum was grown at 37° C. in Gifu Anaerobic Broth (HIMEDIA Laboratories) to early stationary phase under anaerobic conditions (82% N2, 15% CO2, 3% H2 by volume) in an anaerobic chamber and diluted in PBS to 10^7 CFUs.
Cytokine levels were determined from culture supernatants using LEGENDplex™ (BioLegend), a bead-based immunoassay. The preformed mouse T helper cytokine panel was used. […]
For direct ex vivo intracellular cytokine detection, cells isolated from small intestinal lamina propria, MLN or spleen were immediately treated with GolgiStop (BD Bioscience) and surface-stained in FACS buffer (PBS, 2% bovine serum albumin, 0.2 mg of sodium azide, 2 mM EDTA) for 30 minutes in the dark at room temperature with fluorescently conjugated antibodies specific for CD3, CD4, CD11b, CD11c, CD44, CD62L, CD19, CD45, CD45R (B220), CXCR5, GITR, IL-17, IFN-g, Ly6C, NK1.1, PDCA-1, PD-1 and PSGL-1. […] Cell viability was assessed with Zombie NIR Fixable Viability Kit (BioLegend).

Experiment [2] concerns ERV gp70. Nature of the experiment: Liver ERV gp70 expression by RT-qPCR after oral antibiotics. It is filed as in vivo, mouse. Conditions: oral vancomycin; FIG. 7.
Excerpt: as §1, with “E. gallinarum was grown at 37° C. in Gifu Anaerobic Broth (HIMEDIA Laboratories) to early stationary phase under anaerobic conditions (82% N2, 15% CO2, 3% H2 by volume) in an anaerobic chamber and diluted in PBS to 10^7 CFUs.” left out
RNA was isolated from hepatocytes, dendritic cells or ileum using the RNAeasy plus mini kit (Qiagen) according to the manufacturer's instructions. cDNA was generated using the QuantiTect Reverse Transcription Kit (Qiagen). […]
Background: Quantitative PCR measures a nucleic acid by following its amplification.

Experiment [3] relates to (NZWxBXSB)F1 mice. The experiment in a line: Serum ELISAs for anti-dsDNA, anti-RNA, anti-β2GPI IgG, ERV gp70 protein and anti-ERV gp70 immune complexes. The format is in vivo, mouse.
Excerpt: as §1
Serum antibodies specific for dsDNA and b2GPI were determined using standardized ELISAs (anti-dsDNA antibody, Abcam; and, Mouse/Rat Apolipoprotein H Antibody, R&D Systems; respectively). Anti-RNA was determined by ELISA using defined positive controls (Human/Mouse RNA Polymerase II Antibody, R&D systems). Anti-ERV gp70 ICs and ERV gp70 protein were determined by OD450 signal comparisons (Evans et al., 1990, J Virol, 64, 6176-6183). For anti-dsDNA ELISAs, DNA-BIND™ (Corning) plates were coated with 100 μg/ml salmon sperm DNA (Fisher Scientific) and blocked in 0.1M PBS, 3.0% BSA, 5.0% FBS. The serum was diluted 1:1000 for the assay and incubated for 1 hour at 37° C. Wells were washed and incubated for 1 hour at 37° C. with rabbit anti-mouse IgG (Fisher Scientific) conjugated to HRP and developed with TMB substrate solution. 2M sulfuric acid (Sigma) solution was used to stop development. The concentration of anti-dsDNA was determined by reading the absorbance at 450 nm/570 nm reference.
For anti-RNA ELISAs, DNA-BIND™ (Corning) plates were coated with […] yeast RNA (Ambion) and blocked in 0.1M PBS, 0.05% Tween-20, 5.0% FBS. The serum was diluted 1:1000 for the assay and incubated for 1 hour at 37° C. Wells were washed and incubated for 1 hour at 37° C. with rabbit anti-mouse IgG (Fisher Scientific) conjugated to HRP and developed with TMB substrate solution. 2M sulfuric acid (Sigma) solution was used to stop development. The concentration of anti-RNA IgG was determined by reading the absorbance at 450 nm/570 nm reference.
For anti-b2GPI ELISAs, Corning® 96-well EIA/RIA easy Wash™ clear flat-bottom polystyrene high-bind microplates were coated with […] recombinant b2GPI/ApoH (R&D Systems) and blocked in Pierce Protein-Free (PBS) Blocking Buffer (Thermo Scientific). The serum was diluted 1:100 for the assay and incubated at room temperature for 2 hours on a shaker. Wells were washed and incubated while shaking for 30 minutes at room temperature with goat anti-mouse IgG (Fisher Scientific) conjugated to HRP and developed with TMB substrate solution. 2M sulfuric acid (Sigma) solution was used to stop development. The concentration of anti-b2GPI was determined by reading the absorbance at 450 nm/650 nm reference. […]

Experiment [4] relates to E. gallinarum. Nature of the experiment: Assessment of bacterial translocation and tissue burden (anaerobic tissue cultures, CFU). It is filed as in vivo, mouse. Conditions: FIG. 1K-1N.
Excerpt: Mice were cohoused for 3 to 4 weeks before antibiotic treatment to allow for equilibration of the microbiota. Single antibiotic or broad-spectrum antibiotic administration consisted of metronidazole (1 g/liter; Fisher Scientific), neomycin (1 g/liter; Fisher Scientific), ampicillin (1 g/liter; Sigma) and vancomycin (0.5 g/liter; Acros Organics) in the drinking water for up to 22 weeks or a targeted regiment for 2 weeks and then replaced with regular water for the duration of the experiment. For broad-spectrum antibiotic experiments (vancomycin, ampicillin, metronidazole, and neomycin combined), sweetener (Equal, 4 g/L) was added to both the antibiotics and control water due to the metallic taste of metronidazole. […] E. gallinarum was grown at 37° C. in Gifu Anaerobic Broth (HIMEDIA Laboratories) to early stationary phase under anaerobic conditions (82% N2, 15% CO2, 3% H2 by volume) in an anaerobic chamber and diluted in PBS to 10^7 CFUs.
14-, 16- and 18-week-old mice underwent sterile laparotomy and nose, mouth, small intestine (luminal and adherent fractions), mesenteric veins, mesenteric lymph nodes (MLN), liver and spleen were aseptically collected in BBL Mycoflask Thioglycollate (Fluid) Prepared Media (BD Diagnostic Systems) and incubated for 72 hours in anaerobic conditions at 37° C. Gifu Media Agar plates were streaked with the content from the BBL Mycoflask Thioglycollate and incubated for 48 hours in an anaerobic chamber at 37° C. Colony Formation Units (CFU) were counted and concentration determined per milligram of tissue. Single colonies were grown in Gifu anaerobic media for 48 hours in an anaerobic chamber at 37° C. and aliquots from each sample were collected and centrifuge for 10 minutes at 10000×g. DNA was extracted from bacterial pellets using DNeasy Blood and Tissue kit (Qiagen) and submitted to PCR amplification of the 16S region and Sanger sequencing. In addition, purified DNA was used for eubacterial, Enterococcus genus and Enterococcus gallinarum PCR assays.

Entries after “also recorded” stand apart in the source; their conditions may differ.

With `CN[C@H](CC(C)C)C(=O)N[C@H]1C(=O)N[C@@H](CC(N)=O)C(=O)N[C@H]2C(=O)N[C@H]3C(=O)N[C@H](C(=O)N[C@H](C(=O)O)c4cc(O)cc(O)c4-c4cc3ccc4O)[C@H](O)c3ccc(c(Cl)c3)Oc3cc2cc(c3O[C@@H]2O[C@H](CO)[C@@H](O)[C@H](O)[C@H]2O[C@H]2C[C@](C)(N)[C@H](O)[C@H](C)O2)Oc2ccc(cc2Cl)[C@H]1O` [vancomycin], the Tfh cells entry in experiment [1] (MLN of (NZWxBXSB)F1 mice treated via drinking water, FIG. 19C) is on record as “reduced; also recorded: suppresses”. For the same compound, the Th17 cells result in experiment [1] (spleen and MLN of (NZWxBXSB)F1 mice, SFB-negative, treated via drinking water, FIG. 19) is on record as “reduced; also recorded: suppresses”. In addition, the “cytokine signatures (inflammatory cytokines in splenocyte supernatants)” value in experiment [1] (splenocytes stimulated with anti-CD3/anti-CD28 for 3 days, FIG. 19A) is “reduced; also recorded: suppresses”. Moreover, in experiment [2], the “hepatic ERV gp70” value is reported as “suppressed”. Further, the “lupus-related autoantibodies (serum anti-dsDNA and anti-RNA IgG)” value in experiment [3] (single antibiotic in drinking water, 16 weeks of age, FIG. 1B-1C) is listed as “prevented”. In addition, the anti-β2GPI entry in experiment [3] (vancomycin 0.5 g/L in drinking water from 6 weeks of age, FIG. 7) is “suppressed”. In addition, the “serum ERV gp70” value in experiment [3] (vancomycin 0.5 g/L in drinking water from 6 weeks of age, FIG. 7K) is reported as “suppressed”. In addition, in experiment [3] (vancomycin 0.5 g/L in drinking water from 6 weeks of age, FIG. 7L), the “anti-ERV gp70 immune complexes (ICs)” value is recorded as “suppressed”. Further, the “Translocation (bacterial growth in mesenteric veins, MLN, liver, spleen)” value in experiment [4] ((NZWxBXSB)F1 mice, antibiotics in drinking water, 16-18 weeks of age) is recorded as “reduced”. In addition, the “suppression of growth of E. gallinarum in tissues, VANC compared to NEO-treated animals” value in experiment [4] (mesenteric veins, MLN, liver, spleen, P=0.0337 and P<0.005) is recorded as “significantly higher”.
